Data on 22 molecules can be found in patent publication US20240025922A1, “TETRAHYDROPYRIDO[3,4-d]PYRIMIDINES AS HPK1 INHIBITORS” (Merck Patent GmbH, priority 2022, published 2024).

The structures appear in SMILES notation. Read-outs that look alike come from different tables or passages of the source.

Assay [1] concerns the target full-length human HPK1 (MAP4K1) (Homo sapiens (Human), UniProt Q92918). The assay is described as follows: HPK1 Kinase Assay (Biochemical Assay), ADP-Glo. The conditions noted are these: GST-HPK1 3.2 nM, 10 μM ATP, MBP substrate, read-out: HPK1 enzymatic IC50. Put shortly:
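ADP-Glo luminescence after a 120-min kinase reaction gave percent inhibition and IC50. The enzyme was Sf21-expressed N-terminal GST full-length human HPK1 at 3.2 nM in HEPES pH 7.5 buffer with MgCl2, DTT, Brij-35 and BSA.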
Background: ADP-Glo first removes unused ATP, then detects ADP through luciferase.

For assay [2], the target named is HPK1 (SLP76 phosphorylation at Ser376 in Jurkat and EL-4 cells) (Homo sapiens, UniProt Q92918). The assay is classed as cell-based. Put shortly:
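Phospho-SLP76 (Ser376) in lysates measured by AlphaLISA for human Jurkat and by 19 h HTRF for mouse EL-4, giving % inhibition and IC50. Compounds applied 60 min before αCD3/αCD28 bead stimulation at 37 °C, lasting 15 min (Jurkat) or 30 min (EL-4).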

Setting [3] is: αCD3/αCD28 Dynabeads stimulated cells, pSLP76 (Ser376) detection; read-out: HPK1 pSLP76 IC50.

Sequence of full-length human HPK1 (MAP4K1) (Q92918 whole entry): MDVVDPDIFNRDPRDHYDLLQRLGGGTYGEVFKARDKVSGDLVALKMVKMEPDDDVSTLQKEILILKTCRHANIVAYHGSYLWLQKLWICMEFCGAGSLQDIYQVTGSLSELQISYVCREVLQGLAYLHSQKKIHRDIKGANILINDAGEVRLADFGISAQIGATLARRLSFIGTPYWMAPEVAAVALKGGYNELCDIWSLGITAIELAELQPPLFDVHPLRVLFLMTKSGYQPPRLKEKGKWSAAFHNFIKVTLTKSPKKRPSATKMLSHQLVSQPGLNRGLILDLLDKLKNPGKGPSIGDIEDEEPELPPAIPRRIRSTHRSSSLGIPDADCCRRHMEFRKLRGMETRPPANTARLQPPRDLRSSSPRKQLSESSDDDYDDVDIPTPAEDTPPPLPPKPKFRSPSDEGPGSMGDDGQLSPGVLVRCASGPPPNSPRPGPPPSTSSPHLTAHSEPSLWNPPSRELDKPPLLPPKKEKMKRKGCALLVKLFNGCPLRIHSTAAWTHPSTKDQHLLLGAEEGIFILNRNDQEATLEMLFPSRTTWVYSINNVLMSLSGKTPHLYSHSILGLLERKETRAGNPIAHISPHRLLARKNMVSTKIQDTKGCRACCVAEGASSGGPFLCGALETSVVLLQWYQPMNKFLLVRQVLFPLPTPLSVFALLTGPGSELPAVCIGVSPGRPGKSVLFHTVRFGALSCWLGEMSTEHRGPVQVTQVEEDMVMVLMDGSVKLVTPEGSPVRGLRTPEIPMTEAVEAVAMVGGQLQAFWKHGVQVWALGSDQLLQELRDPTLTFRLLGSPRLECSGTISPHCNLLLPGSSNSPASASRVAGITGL
Sequence of HPK1 (SLP76 phosphorylation at Ser376 in Jurkat and EL-4 cells) (Q92918 whole entry, looked up): as the sequence (Q92918 whole entry) above

Take `Cc1c(N2Cc3nc(Nc4ccc(CS(C)(=O)=O)cc4)ncc3C(F)(F)C2)cnc2c1NCCO2` [Example 152, 5,5-difluoro-N-[4-(methanesulfonylmethyl)phenyl]-7-{8-methyl-1H,2H,3H-pyrido[2,3-b][1,4]oxazin-7-yl}-5H,6H,7H,8H-pyrido[3,4-d]pyrimidin-2-amine]: the IC50 is below 100 nM in assay [1] and below 500 nM in assay [2] (setting [3]).

As to `COCCN1CCc2cc(Nc3cc4c(cn3)CCN(c3cnc5c(c3C)NCCO5)C4)nn2CC1=O` [Example 153, 6-(2-methoxyethyl)-2-[(6-{8-methyl-1H,2H,3H-pyrido[2,3-b][1,4]oxazin-7-yl}-5,6,7,8-tetrahydro-2,6-naphthyridin-3-yl)amino]-4H,5H,6H,7H,8H-pyrazolo[1,5-d][1,4]diazepin-7-one], the IC50 is below 100 nM in assay [1] and below 500 nM in assay [2] (setting [3]).

Regarding `Cc1c(N2CCc3cnc(Nc4ccc(CS(=O)(=O)CCN(C)C)cc4)nc3C2)cnc2c1NCCO2` [Example 154, N-(4-{[2-(dimethylamino)ethanesulfonyl]methyl}phenyl)-7-{8-methyl-1H,2H,3H-pyrido[2,3-b][1,4]oxazin-7-yl}-5H,6H,7H,8H-pyrido[3,4-d]pyrimidin-2-amine], the IC50 in assay [1] is below 100 nM; in assay [2] (setting [3]) it was below 500 nM.

Turning to `Cc1c(N2CCc3cnc(Nc4ccc(CC(=O)N5CC(F)C5)cc4)nc3C2)cnc2c1NCCO2` [Example 155, 1-(3-fluoroazetidin-1-yl)-2-{4-[(7-{8-methyl-1H,2H,3H-pyrido[2,3-b][1,4]oxazin-7-yl}-5H,6H,7H,8H-pyrido[3,4-d]pyrimidin-2-yl)amino]phenyl}ethan-1-one], the IC50 was below 100 nM in assay [1] and below 500 nM in assay [2] (setting [3]).

As for `Cc1c(N2CCc3cnc(Nc4ccc5c(c4)CN(C)S(=O)(=O)C5)nc3C2)cnc2c1NCCO2` [Example 156, 3-methyl-6-[(7-{8-methyl-1H,2H,3H-pyrido[2,3-b][1,4]oxazin-7-yl}-5H,6H,7H,8H-pyrido[3,4-d]pyrimidin-2-yl)amino]-3,4-dihydro-1H-2?6,3-benzothiazine-2,2-dione], the IC50 is below 100 nM in assay [1] and below 500 nM in assay [2] (setting [3]).

On to `Cc1c(N2CCc3cnc(Nc4ccc(CCS(C)(=O)=O)cc4)nc3C2)cnc2c1NCCO2` [Example 161, N-[4-(2-methanesulfonylethyl)phenyl]-7-{8-methyl-1H,2H,3H-pyrido[2,3-b][1,4]oxazin-7-yl}-5H,6H,7H,8H-pyrido[3,4-d]pyrimidin-2-amine], for which the IC50 in assay [1] was below 100 nM; in assay [2] (setting [3]), below 500 nM.

Consider `COCCOCC(=O)Nc1ccc(Nc2ncc3c(n2)CN(c2cnc4c(c2C)NCCO4)CC3)cc1C` [Example 162, 2-(2-methoxyethoxy)-N-{2-methyl-4-[(7-{8-methyl-1H,2H,3H-pyrido[2,3-b][1,4]oxazin-7-yl}-5H,6H,7H,8H-pyrido[3,4-d]pyrimidin-2-yl)amino]phenyl}acetamide], for which the IC50 was below 100 nM in assay [1] and below 500 nM in assay [2] (setting [3]).

Consider `Cc1c(N2CCc3cnc(Nc4ccc(CC(=O)N5CCC5)cc4)nc3C2)cnc2c1NCCO2` [Example 163, 1-(azetidin-1-yl)-2-(4-((7-(8-methyl-2,3-dihydro-1H-pyrido[2,3-b][1,4]oxazin-7-yl)-5,6,7,8-tetrahydropyrido[3,4-d]pyrimidin-2-yl)amino)phenyl)ethan-1-one], for which the figures for the IC50 in assay [1] and in assay [2] (setting [3]) were below 100 nM and below 500 nM, respectively.

`Cc1c(N2CCc3cnc(Nc4ccc(CC(=O)N5CC6(COC6)C5)cc4)nc3C2)cnc2c1NCCO2` [Example 164, 2-{4-[(7-{8-methyl-1H,2H,3H-pyrido[2,3-b][1,4]oxazin-7-yl}-5H,6H,7H,8H-pyrido[3,4-d]pyrimidin-2-yl)amino]phenyl}-1-{2-oxa-6-azaspiro[3.3]heptan-6-yl}ethan-1-one]: the IC50 in assay [1] was below 100 nM; in assay [2] (setting [3]), below 500 nM.

As to `Cc1c(N2CCc3cnc(Nc4ccc(CC(=O)N5CC(N6CCOCC6)C5)cc4)nc3C2)cnc2c1NCCO2` [Example 165, 2-{4-[(7-{8-methyl-1H,2H,3H-pyrido[2,3-b][1,4]oxazin-7-yl}-5H,6H,7H,8H-pyrido[3,4-d]pyrimidin-2-yl)amino]phenyl}-1-[3-(morpholin-4-yl)azetidin-1-yl]ethan-1-one], the IC50 in assay [1] was below 100 nM; in assay [2] (setting [3]), below 500 nM.

`Cc1c(N2CCc3cnc(Nc4cccc(CS(C)(=N)=O)c4)nc3C2)cnc2c1NCCO2` (centres unmarked) [Example 168, imino(methyl)(3-((7-(8-methyl-2,3-dihydro-1H-pyrido[2,3-b][1,4]oxazin-7-yl)-5,6,7,8-tetrahydropyrido[3,4-d]pyrimidin-2-yl)amino)benzyl)-16-sulfanone]: the values for the concentration for half-maximal inhibition (IC50) in assay [1] and in assay [2] (setting [3]) were below 100 nM and below 500 nM, respectively.

As to `Cc1c(N2CCc3cnc(Nc4ccc(CS(C)(=O)=O)cc4)nc3C2)cnc2nc[nH]c12` [Example 171, N-[4-(methanesulfonylmethyl)phenyl]-7-{7-methyl-1H-imidazo[4,5-b]pyridin-6-yl}-5H,6H,7H,8H-pyrido[3,4-d]pyrimidin-2-amine], the IC50 in assay [1] was below 100 nM; in assay [2] (read-out: HPK1 pSLP76 IC50; αCD3/αCD28 Dynabeads stimulated cells, pSLP76 (Ser376) detection), 500 to 1000 nM.

`Cc1c(N2CCc3cnc(Nc4ccc(CC(=O)N5CC(C)(O)C5)cc4)nc3C2)cnc2c1NCCO2` [Example 173, 1-(3-hydroxy-3-methylazetidin-1-yl)-2-{4-[(7-{8-methyl-1H,2H,3H-pyrido[2,3-b][1,4]oxazin-7-yl}-5H,6H,7H,8H-pyrido[3,4-d]pyrimidin-2-yl)amino]phenyl}ethan-1-one]: the results for the IC50 in assay [1] and in assay [2] (setting [3]) were below 100 nM and below 500 nM, respectively.

As to `Cc1c(N2CCc3cnc(Nc4ccc(CC(=O)N5CC(OC(C)C)C5)cc4)nc3C2)cnc2c1NCCO2` [Example 174, 2-{4-[(7-{8-methyl-1H,2H,3H-pyrido[2,3-b][1,4]oxazin-7-yl}-5H,6H,7H,8H-pyrido[3,4-d]pyrimidin-2-yl)amino]phenyl}-1-[3-(propan-2-yloxy)azetidin-1-yl]ethan-1-one], the IC50 in assay [1] was below 100 nM; in assay [2] (setting [3]) it was below 500 nM.

As to `COCC1CN(C(=O)Cc2ccc(Nc3ncc4c(n3)CN(c3cnc5c(c3C)NCCO5)CC4)cc2)C1` [Example 175, 1-[3-(methoxymethyl)azetidin-1-yl]-2-{4-[(7-{8-methyl-1H,2H,3H-pyrido[2,3-b][1,4]oxazin-7-yl}-5H,6H,7H,8H-pyrido[3,4-d]pyrimidin-2-yl)amino]phenyl}ethan-1-one], the IC50 is below 100 nM in assay [1] and below 500 nM in assay [2] (setting [3]).

`Cc1c(N2CCc3cnc(Nc4ccc(CS(=O)(=O)C5CC5)cn4)cc3C2)cnc2c1NCCO2` [Example 176, N-{5-[(cyclopropanesulfonyl)methyl]pyridin-2-yl}-6-{8-methyl-1H,2H,3H-pyrido[2,3-b][1,4]oxazin-7-yl}-5,6,7,8-tetrahydro-2,6-naphthyridin-3-amine]: the IC50 in assay [1] is below 100 nM; in assay [2] (setting [3]), below 500 nM.

On to `Cc1cc(Nc2ncc3c(n2)CN(c2cnc4c(c2C)NCCO4)CC3)ccc1CS(C)(=O)=O` [Example 178, N-[4-(methanesulfonylmethyl)-3-methylphenyl]-7-{8-methyl-1H,2H,3H-pyrido[2,3-b][1,4]oxazin-7-yl}-5H,6H,7H,8H-pyrido[3,4-d]pyrimidin-2-amine], for which the IC50 is below 100 nM in assay [1] and below 500 nM in assay [2] (setting [3]).

For the molecule `Cc1cc(Nc2cc3c(cn2)CCN(c2cnc4c(c2C)NCCO4)C3)ccc1CS(C)(=O)=O` [Example 179, N-[4-(methanesulfonylmethyl)-3-methylphenyl]-6-{8-methyl-1H,2H,3H-pyrido[2,3-b][1,4]oxazin-7-yl}-5,6,7,8-tetrahydro-2,6-naphthyridin-3-amine], the IC50 in assay [1] is below 100 nM; in assay [2] (setting [3]) it was below 500 nM.

Consider `Cc1c(N2CCc3cnc(Nc4ccc(CS(C)(=O)=O)cc4)nc3C2C)cnc2c1NCCO2` (centres unmarked) [Example 180, N-[4-(methanesulfonylmethyl)phenyl]-8-methyl-7-{8-methyl-1H,2H,3H-pyrido[2,3-b][1,4]oxazin-7-yl}-5H,6H,7H,8H-pyrido[3,4-d]pyrimidin-2-amine], for which the results for the IC50 in assay [1] and in assay [2] (setting [3]) were below 100 nM and below 500 nM, respectively.

As to `COC1CN(C(=O)Cc2ccc(Nc3ncc4c(n3)CN(c3cnc5c(c3C)NCCO5)CC4)cc2)C1` [Example 181, 1-(3-methoxyazetidin-1-yl)-2-{4-[(7-{8-methyl-1H,2H,3H-pyrido[2,3-b][1,4]oxazin-7-yl}-5H,6H,7H,8H-pyrido[3,4-d]pyrimidin-2-yl)amino]phenyl}ethan-1-one], the figures for the IC50 in assay [1] and in assay [2] (setting [3]) were below 100 nM and below 500 nM, respectively.

With `Cc1c(N2CCc3cnc(Nc4ccc(C(C)(C)C#N)cc4)nc3C2)cnc2c1NCCO2` [Example 182, 2-methyl-2-(4-((7-(8-methyl-2,3-dihydro-1H-pyrido[2,3-b][1,4]oxazin-7-yl)-5,6,7,8-tetrahydropyrido[3,4-d]pyrimidin-2-yl)amino)phenyl)propanenitrile], the IC50 in assay [1] was below 100 nM; in assay [2] (setting [3]) it was below 500 nM.

With `Cc1c(N2CCc3cnc(Nc4ccc(Cn5ccnn5)cc4)nc3C2)cnc2c1NCCO2` [Example 183, 7-{8-methyl-1H,2H,3H-pyrido[2,3-b][1,4]oxazin-7-yl}-N-{4-[(1H-1,2,3-triazol-1-yl)methyl]phenyl}-5H,6H,7H,8H-pyrido[3,4-d]pyrimidin-2-amine], the figures for the IC50 in assay [1] and in assay [2] (setting [3]) were below 100 nM and below 500 nM, respectively.

Usually IC50 stands for the concentration at which inhibition is half-maximal.
